Test results: patent US20230416248A1, “COMPOUNDS AND USES THEREOF” (Foghorn Therapeutics Inc., priority 2020, published 2023)
pIC50: −log10 of the molar value. Read-outs that look alike come from different tables or passages of the source.

What was measured:
BRG-1 = biological target: T1, BRG-1 (Homo sapiens, UniProt P51532); test: ATPase catalytic activity of BRG-1, ADP-Glo in vitro biochemical assay; conditions: 30 nM BRG-1, 400 μM ATP, read-out: BRG1 IC50
T1 construct: made in house; host or cells: High Five insect cells
Outline: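 Once the ATPase reaction finished, leftover ATP was depleted over 40 minutes at room temperature. Generated ADP was next turned back into ATP during a 60-minute room-temperature step. Luciferase-derived light was then measured.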

BRM = biological target: T2, BRM (Homo sapiens, UniProt P51531); test: ATPase catalytic activity of BRM, ADP-Glo in vitro biochemical assay; conditions: for pIC50: 30 nM BRM, 400 μM ATP; for Ratio* (BRG1 IC50 (μM) divided by BRM IC50 (μM)): selectivity ratio BRG1 IC50 / BRM IC50
T2 construct: made in house; host or cells: High Five insect cells
Outline: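 ADP-Glo luminescence, after depletion of leftover ATP and conversion of ADP, reported the activity. The 1 h room-temperature reaction held 400 μM ATP, 20 nM salmon sperm DNA and 30 nM BRM in 20 mM Tris pH 8, 20 mM MgCl2, 50 mM NaCl, 0.1% Tween-20, 1 mM DTT.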

[1] = ATPase catalytic activity, ADP-Glo

T1 sequence (P51532 whole entry): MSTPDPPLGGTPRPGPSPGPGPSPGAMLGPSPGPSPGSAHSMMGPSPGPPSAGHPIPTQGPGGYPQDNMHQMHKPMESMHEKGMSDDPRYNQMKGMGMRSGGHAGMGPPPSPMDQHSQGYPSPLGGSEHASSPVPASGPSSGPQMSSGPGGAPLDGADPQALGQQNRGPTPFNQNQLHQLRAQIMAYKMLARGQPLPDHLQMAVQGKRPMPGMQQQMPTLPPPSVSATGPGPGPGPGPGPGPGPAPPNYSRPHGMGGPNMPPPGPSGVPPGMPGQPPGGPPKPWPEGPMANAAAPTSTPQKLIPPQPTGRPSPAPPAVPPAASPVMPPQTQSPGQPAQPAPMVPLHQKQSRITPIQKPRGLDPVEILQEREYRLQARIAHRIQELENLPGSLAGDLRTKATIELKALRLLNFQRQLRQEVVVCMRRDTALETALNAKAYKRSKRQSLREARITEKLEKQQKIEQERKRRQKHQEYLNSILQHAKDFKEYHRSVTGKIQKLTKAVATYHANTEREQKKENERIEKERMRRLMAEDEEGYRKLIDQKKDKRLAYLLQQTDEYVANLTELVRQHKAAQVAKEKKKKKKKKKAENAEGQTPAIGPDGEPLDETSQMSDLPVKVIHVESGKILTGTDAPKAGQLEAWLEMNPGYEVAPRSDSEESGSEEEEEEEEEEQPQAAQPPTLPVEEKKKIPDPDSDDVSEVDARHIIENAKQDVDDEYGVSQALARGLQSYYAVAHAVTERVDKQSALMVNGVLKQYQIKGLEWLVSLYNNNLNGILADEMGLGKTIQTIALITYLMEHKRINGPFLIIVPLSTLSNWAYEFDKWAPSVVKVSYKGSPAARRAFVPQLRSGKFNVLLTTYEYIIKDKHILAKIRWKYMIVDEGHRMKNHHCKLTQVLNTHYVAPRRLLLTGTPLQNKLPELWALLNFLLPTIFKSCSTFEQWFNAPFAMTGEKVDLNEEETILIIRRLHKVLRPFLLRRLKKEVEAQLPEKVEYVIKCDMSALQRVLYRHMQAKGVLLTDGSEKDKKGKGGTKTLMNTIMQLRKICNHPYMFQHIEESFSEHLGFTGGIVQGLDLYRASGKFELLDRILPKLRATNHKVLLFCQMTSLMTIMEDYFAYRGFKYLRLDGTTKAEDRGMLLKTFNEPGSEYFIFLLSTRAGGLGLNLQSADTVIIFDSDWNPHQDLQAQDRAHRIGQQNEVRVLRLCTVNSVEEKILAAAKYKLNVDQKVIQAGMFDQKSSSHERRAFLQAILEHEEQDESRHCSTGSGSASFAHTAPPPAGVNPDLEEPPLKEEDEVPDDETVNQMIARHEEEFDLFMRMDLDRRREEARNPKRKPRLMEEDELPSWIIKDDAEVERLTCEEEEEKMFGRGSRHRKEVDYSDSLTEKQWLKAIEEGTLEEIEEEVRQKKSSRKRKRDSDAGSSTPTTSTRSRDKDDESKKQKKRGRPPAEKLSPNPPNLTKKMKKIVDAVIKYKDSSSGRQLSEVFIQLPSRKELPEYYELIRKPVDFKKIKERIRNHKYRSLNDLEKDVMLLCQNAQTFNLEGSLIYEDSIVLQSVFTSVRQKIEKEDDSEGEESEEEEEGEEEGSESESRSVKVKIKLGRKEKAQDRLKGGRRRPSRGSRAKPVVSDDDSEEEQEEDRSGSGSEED
T2 sequence (P51531 whole entry): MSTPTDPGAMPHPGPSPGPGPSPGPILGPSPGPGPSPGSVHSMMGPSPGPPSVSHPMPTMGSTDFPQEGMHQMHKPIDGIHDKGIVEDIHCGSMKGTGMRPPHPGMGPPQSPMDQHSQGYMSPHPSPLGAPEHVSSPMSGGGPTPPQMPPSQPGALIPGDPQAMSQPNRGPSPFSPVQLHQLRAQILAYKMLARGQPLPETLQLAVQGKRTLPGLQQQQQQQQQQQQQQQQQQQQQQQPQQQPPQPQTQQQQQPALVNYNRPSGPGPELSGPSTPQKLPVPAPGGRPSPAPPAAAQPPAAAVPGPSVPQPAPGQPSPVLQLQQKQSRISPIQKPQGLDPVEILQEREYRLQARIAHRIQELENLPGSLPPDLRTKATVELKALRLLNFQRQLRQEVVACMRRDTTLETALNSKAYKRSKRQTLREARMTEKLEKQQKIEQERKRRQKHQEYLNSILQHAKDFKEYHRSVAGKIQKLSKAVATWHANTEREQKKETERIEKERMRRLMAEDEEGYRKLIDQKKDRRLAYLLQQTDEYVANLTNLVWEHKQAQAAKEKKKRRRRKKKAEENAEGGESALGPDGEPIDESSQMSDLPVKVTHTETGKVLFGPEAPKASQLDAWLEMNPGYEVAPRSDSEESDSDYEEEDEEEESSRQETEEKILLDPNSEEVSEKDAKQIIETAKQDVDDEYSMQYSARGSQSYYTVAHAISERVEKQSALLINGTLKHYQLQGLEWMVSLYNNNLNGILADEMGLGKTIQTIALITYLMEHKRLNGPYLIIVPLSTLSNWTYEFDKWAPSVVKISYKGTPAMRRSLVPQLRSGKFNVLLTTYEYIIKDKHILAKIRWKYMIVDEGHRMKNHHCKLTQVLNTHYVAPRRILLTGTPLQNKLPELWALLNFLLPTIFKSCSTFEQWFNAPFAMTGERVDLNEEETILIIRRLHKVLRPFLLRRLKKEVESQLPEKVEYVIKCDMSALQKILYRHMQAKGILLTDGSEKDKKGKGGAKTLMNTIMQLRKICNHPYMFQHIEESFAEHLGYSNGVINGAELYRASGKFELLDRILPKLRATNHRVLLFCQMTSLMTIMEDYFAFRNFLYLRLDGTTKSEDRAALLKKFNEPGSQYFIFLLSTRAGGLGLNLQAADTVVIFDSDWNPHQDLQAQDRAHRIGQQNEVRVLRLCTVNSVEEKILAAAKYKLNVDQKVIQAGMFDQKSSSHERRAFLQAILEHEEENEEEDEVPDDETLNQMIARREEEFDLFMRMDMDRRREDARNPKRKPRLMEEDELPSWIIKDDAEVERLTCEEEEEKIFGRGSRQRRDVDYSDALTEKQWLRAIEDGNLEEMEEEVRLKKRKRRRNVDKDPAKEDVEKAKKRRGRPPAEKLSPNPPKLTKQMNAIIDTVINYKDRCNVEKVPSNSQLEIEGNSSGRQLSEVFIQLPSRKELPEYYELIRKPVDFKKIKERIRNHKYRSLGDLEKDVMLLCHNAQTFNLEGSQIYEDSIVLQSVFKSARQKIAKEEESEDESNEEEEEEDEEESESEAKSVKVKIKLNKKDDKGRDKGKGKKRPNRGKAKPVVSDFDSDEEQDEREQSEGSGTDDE

Row | Structure (SMILES) | pIC50 (BRG-1; ADP-Glo ATPase assay) | pIC50 (BRM; ADP-Glo ATPase assay) | Ratio* (BRG1 IC50 (μM) divided by BRM IC50 (μM)) (BRM) | pIC50 (BRG-1; [1]) | pIC50 (BRM; [1]) | Ratio* (BRM; ratio of BRG1 IC50 to BRM IC50) | Ratio* (BRM; ratio BRG1 IC50 / BRM IC50)
1 | CC1OCCS(=O)(=O)c2cc(C(=O)NCc3cc4nc(-c5cccc(N6C[C@@H](C)O[C@@H](C)C6)n5)ccc4cn3)ccc21 (stereo partly drawn) [Compound 54] | 7.35 | 8.02 | 4.70 |  |  |  | 
2 | CS(=O)(=O)c1cc(C(=O)NCc2cc3nc(-c4cncc(C5CC5)n4)ccc3cn2)ccc1C1CC1 [Compound 266] | 5.30 | 6.09 | 6.11 |  |  |  | 
3 | O=C(NCc1cc2nc(-c3cncc(C(F)(F)F)n3)ccc2cn1)c1ccc2c(c1)S(=O)(=O)CCOC2 [Compound 209] | 5.44 | 6.30 | 7.27 |  |  |  | 
4 | CC1CN(c2cccc(-c3ccc4cnc(CNC(=O)c5ccc6c(c5)S(=O)(=O)C(C)CN6C)cc4n3)n2)CC(C)O1 (stereo not drawn) [Compound 567] |  |  |  | 6.27 | 7.48 | 16.28 | 
5 | Cc1cnc2c(c1)CCCN2c1ccc2cnc(CNC(=O)c3ccc4c(c3)S(=O)(=O)[C@@H](C)COC4)cc2n1 [Compound 396] |  |  |  | 6.99 | 8.23 | 17.40 | 
6 | CCOc1cccc(-c2ccc3cnc(CNC(=O)c4cc(F)c5c(c4)S(=O)(=O)CCOC5)cc3n2)n1 [Compound 49] | 6.34 | 7.61 | 18.33 |  |  |  | 
7 | COC[C@H]1C[C@H]1N(C)c1cccc(-c2ccc3cnc(CNC(=O)c4ccc5c(c4)S(=O)(=O)CCOC5)cc3n2)n1 [Compound 412] |  |  |  | 6.19 | 7.12 | 8.53 | 
8 | CCO[C@H]1CCS(=O)(=O)c2cc(C(=O)NCc3cc4nc(-c5cccc(N6C[C@@H](C)O[C@@H](C)C6)n5)ccc4cn3)ccc2C1 [Compound 482] |  |  |  | 6.63 | 7.64 | 10.09 | 
9 | C[C@@H]1CN(c2cccc(-c3ccc4cnc(CNC(=O)c5cc(Cl)c6c(c5)S(=O)(=O)[C@@H](C)CCO6)cc4n3)n2)C[C@H](C)O1 [Compound 484] |  |  |  | 6.54 | 7.86 | 21.16 | 
10 | COc1cc2c(cn1)N(c1ccc3cnc(CNC(=O)c4ccc5c(c4)S(=O)(=O)CCOC5)cc3n1)CCC2 [Compound 719] | 6.24 | 7.37 |  |  |  |  | 13.62
11 | O=C(NCc1cc2nc(N3CCCc4ccc(OC5CC5)cc43)ccc2cn1)c1ccc2c(c1)S(=O)(=O)CCOC2 [Compound 644] |  |  |  | 6.77 | 8.19 | 26.34 | 
12 | O=C(NCc1cc2nc(N3CCCc4cccnc43)ccc2cn1)c1ccc2c(c1)S(=O)(=O)CCOC2 [Compound 150] | 6.40 | 7.47 | 11.71 |  |  |  | 
13 | COCCn1cc2c(-c3ccc4cnc(CNC(=O)c5ccc6c(c5)S(=O)(=O)CCOC6)cc4n3)cccc2n1 [Compound 673] |  |  |  | 5.30 | 6.25 | 8.79 | 
14 | C[C@@H]1CN(c2cccc(-c3ccc4cnc(CNC(=O)c5ccc6c(c5)S(=O)(=O)CCC(F)C6)cc4n3)n2)C[C@H](C)O1 (stereo partly drawn) [Compound 779] | 7.93 | 8.26 |  |  |  |  | 2.13
15 | O=C(NCc1cc2nc(-c3cccc(C45COCC4C5)n3)ccc2cn1)c1ccc2c(c1)S(=O)(=O)CCOC2 (stereo not drawn) [Compound 472] |  |  |  | 6.43 | 7.60 | 14.93 | 
16 | CO[C@@H]1CCCN(c2cccc(-c3ccc4cnc(CNC(=O)c5ccc6c(c5)S(=O)(=O)CCOC6)cc4n3)n2)C1 [Compound 92] | 6.99 | 8.11 | 13.36 |  |  |  | 
17 | O=C(NCc1cc2nc(-c3cccc(N4CCCC(F)(F)C4)n3)ccc2cn1)c1ccc2c(c1)S(=O)(=O)CCOC2 [Compound 308] | 7.80 | 8.27 | 2.91 |  |  |  | 
18 | C[C@@H]1CN(c2cccc(-c3ccc4cnc(CNC(=O)c5ccc6c(c5)S(=O)(=O)CC[C@H]6C)cc4n3)n2)C[C@H](C)O1 [Compound 490] |  |  |  | 6.10 | 7.25 | 14.02 | 
19 | C[C@@H]1CN(c2ccnc(-c3ccc4cnc(CNC(=O)c5ccc6c(c5)S(=O)(=O)[C@@H](C)COC6)cc4c3)n2)C[C@H](C)O1 [Compound 708] | 6.04 | 7.28 |  |  |  |  | 17.15
20 | O=C(NCc1cc2nc(N3CCOc4cc(C5CC5)ncc43)ccc2cn1)c1ccc2c(c1)S(=O)(=O)CCOC2 [Compound 739] | 6.66 | 7.90 |  |  |  |  | 17.37
21 | CO[C@@H]1C[C@H]1N(C)c1cccc(-c2ccc3cnc(CNC(=O)c4ccc5c(c4)S(=O)(=O)CCOC5)cc3n2)n1 [Compound 480] |  |  |  | 7.22 | 8.29 | 11.83 | 
22 | O=C(NCc1cc2nc(N3CCOc4cc(C5CCC5)cnc43)ccc2cn1)c1ccc2c(c1)S(=O)(=O)CCOC2 [Compound 753] | 6.69 | 7.85 |  |  |  |  | 14.28
